Test results published in patent US10745360B2, “Quinoxaline compounds, method for preparing the same and use thereof” (Development Center for Biotechnology, priority 2014, dated 2020).
Like-named read-outs stand apart in the source and are kept apart here.

Key:
[1] = biological target: T1, B-Raf^V600E kinase (Homo sapiens, UniProt P15056, V600E); assay: B-Raf V600E kinase assay ([33P] incorporation into MEK1 K97R); format: biochemical; settings: recombinant B-Raf^V600E, 8 μM ATP, 30 min, 30° C.; read-out: IC50 ranking against B-Raf^V600E kinase
T1 construct: purchased Upstate Biotechnology
T1 sequence (P15056 whole entry V600E): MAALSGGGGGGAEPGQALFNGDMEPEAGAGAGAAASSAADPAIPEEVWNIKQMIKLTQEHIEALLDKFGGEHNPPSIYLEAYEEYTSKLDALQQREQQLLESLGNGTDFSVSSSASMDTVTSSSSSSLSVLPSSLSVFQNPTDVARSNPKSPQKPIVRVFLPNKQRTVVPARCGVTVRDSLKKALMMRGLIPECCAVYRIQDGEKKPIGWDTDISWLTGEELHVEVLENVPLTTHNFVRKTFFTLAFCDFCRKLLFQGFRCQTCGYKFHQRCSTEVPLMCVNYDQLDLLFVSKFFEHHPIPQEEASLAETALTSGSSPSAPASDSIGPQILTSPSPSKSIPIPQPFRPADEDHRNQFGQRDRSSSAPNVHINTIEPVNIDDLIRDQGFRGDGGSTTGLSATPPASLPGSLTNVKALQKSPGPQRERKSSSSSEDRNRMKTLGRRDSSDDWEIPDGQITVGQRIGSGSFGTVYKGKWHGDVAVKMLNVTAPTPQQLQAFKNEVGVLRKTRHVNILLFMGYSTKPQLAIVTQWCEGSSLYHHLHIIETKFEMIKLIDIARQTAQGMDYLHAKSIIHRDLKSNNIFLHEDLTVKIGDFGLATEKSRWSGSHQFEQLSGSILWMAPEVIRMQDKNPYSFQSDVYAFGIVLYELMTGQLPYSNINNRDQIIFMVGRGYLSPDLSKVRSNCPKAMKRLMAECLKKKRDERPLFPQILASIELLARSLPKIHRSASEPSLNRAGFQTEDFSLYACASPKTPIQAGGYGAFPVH
Experimental: (§1) Inhibition of kinase activity by a test compound disclosed herein was estimated by quantifying the amount of [^33P] incorporation of a substrate in the presence of the test compound. Standard assay conditions were 5 ng of recombinant B-Raf^V600E kinase (Upstate Biotechnology) with 500 ng MEK1 (K97R) in assay buffer (8 μM ATP, 0.5 μCi [^33P]ATP (specific activity 3000 Ci/mmol, PerkinElmer), 50 mM Tris/HCl (pH 7.5), and 1 mM EGTA, 1 mM Na3VO4, 1% 2-mercaptoethanol, 0.1% Brij 35, and 0.2 mg/ml BSA), and the test compound (diluted with 4% DMSO) or DMSO alone (as a control) in a final volume of 25 μL. Reactions were incubated at 30° C. for 30 min and stopped by adding 3% phosphoric acid, harvested onto a 96-well GF/B UniFilter (PerkinElmer) using a unifilter harvester (PerkinElmer), and counted with a TopCount microplate scintillation counter (PerkinElmer). The IC50 values of inhibitors were determined after carrying out assays at 3-fold serially diluted concentrations of each compound in duplication. The results were analyzed using linear regression software (GraphPad Prism 4; GraphPad Software Inc.).

[2] = biological target: T2, B-Raf kinase (Homo sapiens, UniProt P15056); assay: B-Raf kinase assay ([33P] incorporation into MEK1 K97R); format: biochemical; settings: recombinant B-Raf, 8 μM ATP, 30 min, 30° C.; read-out: IC50 ranking against B-Raf kinase
T2 construct: purchased Upstate Biotechnology
T2 sequence (P15056 whole entry): as the sequence (P15056 whole entry V600E) above, with E600V counted along it
Experimental: Inhibition of kinase activity by a test compound disclosed herein was estimated by quantifying the amount of [^33P] incorporation of a substrate in the presence of the test compound. Standard assay conditions were 5 ng of recombinant B-Raf kinase (Upstate Biotechnology) with 500 ng MEK1(Map-erk kinase; K97R) in the assay buffer (8 μM ATP, 0.5 μCi [^33P]ATP (specific activity 3000 Ci/mmol, PerkinElmer), 50 mM Tris/HCl (pH 7.5), and 1 mM EGTA, 1 mM Na3VO4, 1% 2-mercaptoethanol, 0.1% Brij 35, and 0.2 mg/ml BSA) in a final volume of 25 μL. Reactions were incubated at 30° C. for 30 min and stopped by adding 3% phosphoric acid, harvested onto a 96-well GF/B UniFilter (PerkinElmer) using a unifilter harvester (PerkinElmer), and counted with a TopCount microplate scintillation counter (PerkinElmer). The IC50 values of inhibitors were determined after carrying out assays at 3-fold serially diluted concentrations of each compound in duplication. The results were analyzed using linear regression software (GraphPad Prism 4; GraphPad Software Inc.).

[3] = system: B-Raf^V600E mutant A375 melanoma cell; assay: Cell proliferation assay (CELLTITER 96), A375; format: cell-based; settings: Homo sapiens, A-375; A375, 72 hours; read-out: Cytotoxicity (IC50 Ranking) A375 (B-Raf^V600E)
Experimental: (§2) Inhibition of cell growth by compounds was measured using CELLTITER 96® assay. The cytotoxicity of compounds was evaluated in B-Raf^V600E mutant A375 melanoma cell, B-Raf^V600E mutant COLO205 colon cancer cell, and SK-MEL-2 melanoma cell with wild type B-Raf (B-Raf^wt) and NRASQ^Q61R mutation. A375 and COLO205 cell line were cultured in DMEM containing 10% FCS and incubated at 37° C. in 5% CO2 atmosphere. SK-MEL-2 cell line was cultured in MEM containing 10% FCS and incubated at 37° C. in 5% CO2 atmosphere. A375, COLO205 and SK-MEL-2 cell were seeded into 96-well plates at 2000, 2000, and 4000 cells/well, respectively, and allowed to adhere for overnight. Then, these seeded cells were treated with increasing concentrations of the test compounds and incubated for another 72 hours. At the end of the incubation, CELLTITER 96® Aqueous One Solution Reagent (Promega) was added and incubated for 4 hours. Cell viability was determined by measuring absorbance at 490 nm using EMAX® microplate reader (Molecular Devices).
(§3) The 50% inhibitory concentration (IC50) value was calculated by plotting the percentage of growth inhibition against the concentration of compound, using GraphPad Prism5 software for curve fitting.

[4] = system: B-Raf^V600E mutant COLO205 colon cancer cell; assay: Cell proliferation assay (CELLTITER 96), COLO205; format: cell-based; settings: Homo sapiens, COLO 205; COLO205, 72 hours; read-out: Cytotoxicity (IC50 Ranking) COLO205 (B-Raf^V600E)
Experimental: as §2, §3

[5] = system: SK-MEL-2 melanoma cell with wild type B-Raf (B-Raf^wt) and NRAS^Q61R mutation; assay: Cell proliferation assay (CELLTITER 96), SK-MEL-2; format: cell-based; settings: Homo sapiens, SK-MEL-2, 72 hours, read-out: Cytotoxicity (IC50 Ranking) SK-MEL-2 (NRAS^Q61R, B-Raf^wt)
Experimental: as §2, §3

[6] = biological target: T3, C-Raf kinase (Homo sapiens, UniProt P04049); assay: C-Raf kinase assay ([33P] incorporation into MEK1 K97R); format: biochemical; settings: recombinant C-Raf, 8 μM ATP, 30 min, 30° C.; read-out: IC50 ranking against C-Raf kinase
T3 construct: purchased Upstate Biotechnology
T3 sequence (P04049 whole entry): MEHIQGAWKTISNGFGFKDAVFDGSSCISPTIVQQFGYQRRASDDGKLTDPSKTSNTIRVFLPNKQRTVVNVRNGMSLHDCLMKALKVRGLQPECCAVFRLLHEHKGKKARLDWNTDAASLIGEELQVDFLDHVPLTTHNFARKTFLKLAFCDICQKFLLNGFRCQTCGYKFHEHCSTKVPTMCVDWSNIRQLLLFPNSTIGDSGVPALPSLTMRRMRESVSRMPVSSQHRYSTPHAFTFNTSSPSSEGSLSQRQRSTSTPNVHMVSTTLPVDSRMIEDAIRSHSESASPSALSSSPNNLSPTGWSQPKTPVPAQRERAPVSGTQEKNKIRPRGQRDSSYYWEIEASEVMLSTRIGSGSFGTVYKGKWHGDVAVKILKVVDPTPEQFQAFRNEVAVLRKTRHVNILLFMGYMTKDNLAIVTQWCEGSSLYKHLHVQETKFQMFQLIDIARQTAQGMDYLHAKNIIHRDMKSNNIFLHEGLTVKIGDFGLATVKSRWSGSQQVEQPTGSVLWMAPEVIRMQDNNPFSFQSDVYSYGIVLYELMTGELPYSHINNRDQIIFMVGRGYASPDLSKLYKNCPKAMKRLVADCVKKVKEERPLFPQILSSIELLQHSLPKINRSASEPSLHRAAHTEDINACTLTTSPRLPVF
Experimental: as §1, with “were 2” for “were 5”, “recombinant C-Raf” for “recombinant B-Raf^V600E”, “ng MEK1(K97R)” for “ng MEK1 (K97R)”

| Structure (SMILES) | IC50 [1] [nM] | IC50 [2] [nM] | IC50 [3] [nM] | IC50 [4] [nM] | IC50 ([5]; given as bound) [µM] | IC50 [6] [nM] | IC50 ([5]; given as class symbol) [µM] |
| --- | --- | --- | --- | --- | --- | --- | --- |
| CCOc1cnc2ccc(Nc3cc(NS(=O)(=O)c4ccccc4)ccc3F)c(C#N)c2n1 [compound 24, N-(3-(5-cyano-3-ethoxyquinoxalin-6-ylamino)-4-fluorophenyl)benzenesulfonamide] | < 300 | < 300 | 300 to 1000 | < 300 | > 10 | < 300 |  |
| N#Cc1c(Nc2cc(NS(=O)(=O)c3ccccc3)ccc2F)ccc2ncc(N3CCOCC3)nc12 [compound 25, N-(3-(5-cyano-3-morpholinoquinoxalin-6-ylamino)-4-fluorophenyl)benzenesulfonamide] | < 300 | < 300 | 300 to 1000 | < 300 | > 10 | < 300 |  |
| CS(=O)(=O)Nc1ccc(F)c(Nc2ccc3ncc(N4CCOCC4)nc3c2C#N)c1 [compound 26, N-(3-(5-cyano-3-morpholinoquinoxalin-6-ylamino)-4-fluorophenyl)methanesulfonamide] | 1000 to 10000 | 1000 to 10000 | 1000 to 10000 | 1000 to 10000 | > 10 | 1000 to 10000 |  |
| CCOc1cnc2ccc(Nc3cc(NS(C)(=O)=O)ccc3F)c(C#N)c2n1 [compound 27, N-(3-(5-cyano-3-ethoxyquinoxalin-6-ylamino)-4-fluorophenyl)methanesulfonamide] | 1000 to 10000 | 1000 to 10000 | 1000 to 10000 | 300 to 1000 | > 10 | 1000 to 10000 |  |
| CCCS(=O)(=O)Nc1ccc(F)c(Nc2ccc3ncc(N(C)C)nc3c2C#N)c1 [compound 28, N-(3-(5-cyano-3-(dimethylamino)quinoxalin-6-ylamino)-4-fluorophenyl)propane-1-sulfonamide] | 300 to 1000 | 300 to 1000 | 300 to 1000 | < 300 | > 10 | < 300 |  |
| CCCS(=O)(=O)Nc1ccc(F)c(Nc2ccc3ncc(OC)nc3c2C=O)c1F [compound 29, N-(2,4-difluoro-3-(5-formyl-3-methoxyquinoxalin-6-ylamino)phenyl)propane-1-sulfonamide] | < 300 | < 300 | < 300 | < 300 | > 10 | < 300 |  |
| CCCS(=O)(=O)Nc1ccc(F)c(Nc2ccc3ncc(OC)nc3c2C(=O)O)c1F [compound 30, 6-(2,6-difluoro-3-(propylsulfonamido)phenylamino)-3-methoxyquinoxaline-5-carboxylic acid] | 300 to 1000 | 300 to 1000 | 1000 to 10000 | 1000 to 10000 | > 10 | 300 to 1000 |  |
| CCCS(=O)(=O)Nc1ccc(F)c(Nc2ccc3ncc(OC)nc3c2C(=O)OC)c1F [compound 31, methyl 6-(2,6-difluoro-3-(propylsulfonamido)phenylamino)-3-methoxyquinoxaline-5-carboxylate] | < 300 | < 300 | 300 to 1000 | 300 to 1000 | > 10 | < 300 |  |
| N#Cc1c(Nc2c(F)ccc(NS(=O)(=O)CCCF)c2F)ccc2ncc(N3CCOCC3)nc12 [compound 33, N-(3-(5-cyano-3-morpholinoquinoxalin-6-ylamino)-2,4-difluorophenyl)-3-fluoropropane-1-sulfonamide] | < 300 | < 300 | < 300 | < 300 |  | < 300 | 1 to 10 |
| CCOc1cnc2ccc(Nc3c(F)ccc(NS(=O)(=O)CCCF)c3F)c(C#N)c2n1 [compound 34, N-(3-(5-cyano-3-ethoxyquinoxalin-6-ylamino)-2,4-difluorophenyl)-3-fluoropropane-1-sulfonamide] | < 300 | < 300 | < 300 | < 300 | > 10 | < 300 |  |
| COc1cnc2ccc(Nc3cc(NS(=O)(=O)c4ccccc4)ccc3F)c(C#N)c2n1 [compound 35, N-(3-(5-cyano-3-methoxyquinoxalin-6-ylamino)-4-fluorophenyl)benzenesulfonamide] | < 300 | < 300 | < 300 | < 300 | > 10 | < 300 |  |
| CCCS(=O)(=O)Nc1ccc(F)c(Nc2ccc3ncc(OCC)nc3c2C#N)c1 [compound 36, N-(3-(5-cyano-3-ethoxyquinoxalin-6-ylamino)-4-fluorophenyl)propane-1-sulfonamide] | < 300 | < 300 | < 300 | < 300 | > 10 | < 300 |  |
| CN(C)c1cnc2ccc(Nc3cc(NS(=O)(=O)c4ccccc4)ccc3F)c(C#N)c2n1 [compound 37, N-(3-(5-cyano-3-(dimethylamino)quinoxalin-6-ylamino)-4-fluorophenyl)benzenesulfonamide] | < 300 | < 300 | 1000 to 10000 | 1000 to 10000 | > 10 | < 300 |  |
| CCCS(=O)(=O)Nc1cccc(Nc2ccc3ncc(N4CCOCC4)nc3c2C#N)c1C [compound 38, N-(3-(5-cyano-3-morpholinoquinoxalin-6-ylamino)-2-methylphenyl)propane-1-sulfonamide] | < 300 | < 300 | < 300 | < 300 | > 10 | < 300 |  |
| CCCS(=O)(=O)Nc1ccc(C)c(Nc2ccc3ncc(N4CCOCC4)nc3c2C#N)c1 [compound 39, N-(3-(5-cyano-3-morpholinoquinoxalin-6-ylamino)-4-methylphenyl)propane-1-sulfonamide] | 300 to 1000 | 300 to 1000 | 1000 to 10000 | 1000 to 10000 | > 10 | 1000 to 10000 |  |
